The target of experiment [1] is T1, 5-HT1A serotonin receptor (Rattus norvegicus, UniProt P19327).
T1 construct: 44, 1685-1696 (1985); from tissue
T1 sequence (P19327 1-422): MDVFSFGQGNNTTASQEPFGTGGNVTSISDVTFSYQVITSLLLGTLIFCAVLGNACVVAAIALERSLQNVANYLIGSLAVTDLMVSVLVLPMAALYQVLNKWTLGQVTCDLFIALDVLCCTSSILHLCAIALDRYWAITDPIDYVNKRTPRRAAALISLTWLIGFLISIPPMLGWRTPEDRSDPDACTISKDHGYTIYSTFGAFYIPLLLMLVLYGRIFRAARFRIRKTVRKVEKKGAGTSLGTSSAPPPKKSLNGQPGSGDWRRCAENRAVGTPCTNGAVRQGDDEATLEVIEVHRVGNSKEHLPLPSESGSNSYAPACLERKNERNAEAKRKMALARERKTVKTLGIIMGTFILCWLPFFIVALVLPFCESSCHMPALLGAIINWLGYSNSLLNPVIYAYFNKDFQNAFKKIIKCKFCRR
Briefly: 5-HT1A receptor binding, displacement of ^3 H-8-OH DPAT.
Excerpt: The serotoninergic properties of the compounds of this invention were established by the procedure of Hall et al., J. Neurochem.

The target in experiment [2] is T2, limbic D2 (dopamine) receptor (Rattus norvegicus, UniProt P61169).
T2 construct: from tissue; rat inferred
Kind of experiment: D2 receptor affinity, inhibition of ^3 H-spiroperidol (^3 H-spirohaloperidol) binding to limbic brain tissue.

The conditions of experiment [3]: Barone et al., 1986; cited from earlier work.
Experiment [4] deals with 5-HT2 receptor. Kind of experiment: 5-HT2 inhibition of ^3 H-spiroperidol binding (rat brain cortex homogenate). Here is the method:
5-HT2 inhibition of ^3 H-spiroperidol is determined in an analogous manner, employing rat brain cortex homogenate as the receptor tissue, following a modification of Fields et al., ibid; Yamamura et al., ibid; and Creese et al., Eu. J. Pharmacol. 49, 20 (1978).

Data on twelve compounds can be found in patent US4797489A, “Adamantyl- and fluorenyl-arylpiperazines and -arylpiperidines” (American Home Products Corp., priority 1987, dated 1989).

In general, inhibition refers to how much of the control response was suppressed. Broadly, the Ki is the equilibrium dissociation constant of an inhibitor or competing ligand from its target.

T2 sequence (P61169 whole entry): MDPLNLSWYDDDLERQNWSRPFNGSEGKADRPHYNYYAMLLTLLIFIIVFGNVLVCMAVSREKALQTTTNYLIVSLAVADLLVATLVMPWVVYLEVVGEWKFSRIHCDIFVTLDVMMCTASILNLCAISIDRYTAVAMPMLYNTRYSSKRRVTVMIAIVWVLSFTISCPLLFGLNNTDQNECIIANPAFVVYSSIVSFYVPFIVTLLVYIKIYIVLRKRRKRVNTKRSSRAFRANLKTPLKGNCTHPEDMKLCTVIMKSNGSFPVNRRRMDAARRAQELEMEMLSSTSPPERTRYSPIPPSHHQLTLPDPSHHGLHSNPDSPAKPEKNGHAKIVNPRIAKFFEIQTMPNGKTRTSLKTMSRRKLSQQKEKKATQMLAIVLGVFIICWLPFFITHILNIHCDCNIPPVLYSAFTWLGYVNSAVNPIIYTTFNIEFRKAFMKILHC

Regarding `COc1ccccc1N1CCN(CCOC(=O)c2cccc3c2Cc2ccccc2-3)CC1` [Example 5, 9H-Fluorene-1-carboxylic acid 2-[4-(2-methoxyphenyl)-1-piperazinyl]ethyl ester], the inhibition at 1 µM in experiment [1] (^3 H-8-OH DPAT) amounted to 100%.
On to `O=C(OCCCN1CCN(c2cccc(Cl)c2)CC1)C12CC3CC(CC(C3)C1)C2` [Example 1, Tricyclo[3.3.1.1^3,7]decane-1-carboxylic acid 3-[4-(3-chlorophenyl)-1-piperazinyl]propyl ester], for which the figures for the inhibition at 1 µM in experiment [1] (^3 H-8-OH DPAT) and in experiment [2] were 80% and 67%, respectively.
Regarding `O=C(OCCCN1CCN(c2ncccn2)CC1)C12CC3CC(CC(C3)C1)C2` [Example 7, Tricyclo[3.3.1.1^3,7]decane-1-carboxylic acid 3-[4-(2-pyrimidinyl)-1-piperazinyl]propyl ester], the inhibition at 1 µM in experiment [1] (^3 H-8-OH DPAT) amounted to 69%; in experiment [2], 33%.
The matching figures for `CC12CC3CC(C1)CC(CC(=O)OCCN1CCN(c4ncccn4)CC1)(C3)C2` [Example 4, 3-Methyltricyclo[3.3.1.1^3,7]decane-1-acetic acid 2-[4-(2-pyrimidinyl)-1-piperazinyl]ethyl ester]: 72% and 39%.
`O=C(OCCN1CCN(c2cccc(Cl)c2)CC1)c1cccc2c1Cc1ccccc1-2` [Example 8, 9H-Fluorene-1-carboxylic acid 2-[4-(3-chlorophenyl)-1-piperazinyl]ethyl ester] registered an inhibition at 1 µM in experiment [1] (^3 H-8-OH DPAT) of 53%.
Take `O=C(OCCN1CCN(c2ncccn2)CC1)C12CC3CC(CC(C3)C1)C2` [Example 2, Tricyclo[3.3.1.1^3,7]decane-1-carboxylic acid 2-[4-(2-pyrimidinyl)-1-piperazinyl]ethyl ester]: the Ki in experiment [1] (^3 H-8-OH DPAT, Ki calculated from IC50 values) is 8.5 nM. In addition, at 1 µM the inhibition in experiment [2] was 26%.
`COc1ccccc1N1CCN(CCCOC(=O)C23CC4CC(CC(C4)C2)C3)CC1` [Example 3, Tricyclo[3.3.1.1^3,7]decane-1-carboxylic acid 3-[4-(2-methoxyphenyl)-1-piperazinyl]propyl ester]: the inhibition at 1 µM in experiment [1] (^3 H-8-OH DPAT) was found to be 100%; in experiment [2], 90%.
For the compound `N#Cc1ccccc1N1CCN(CCOC(=O)C23CC4CC(CC(C4)C2)C3)CC1` [Example 10, Tricyclo[3.3.1.1^3,7]decane-1-carboxylic acid [2-[4-(2-cyanophenyl)-1-piperazinyl]ethyl]ester], the inhibition at 1 µM in experiment [2] turned out to be 90%.
As for `O=C1CC2(CCCC2)CC(=O)N1CCCCN1CCN(c2ncccn2)CC1` [Buspirone, reference compound], the inhibition at 0.001 µM in experiment [1] (read-out: percent inhibition (5-HT1A, ^3 H-8-OH DPAT)) came out at 97%.
In the case of `Cc1nc2sccn2c(=O)c1CCN1CCC(=C(c2ccc(F)cc2)c2ccc(F)cc2)CC1` [Ritanserin], the “clinical efficacy as anxiolytic-antidepressant agents” value in experiment [3] is recorded as “demonstrated clinical efficacy”.
In turn, `CC12CC3CC(C1)CC(CC(=O)OCCN1CCC(=C(c4ccc(F)cc4)c4ccc(F)cc4)CC1)(C3)C2` [Example 12, Tricyclo[3.3.1.1^3,7]decane-3-methyl-1-acetic acid 2-[4-[bis(4-fluorophenyl)methylene]-1-piperidinyl]ethyl ester] came in with an inhibition at 1 µM in experiment [2] of 36%. In experiment [4], the “5HT2 Receptor Binding % Inhibition at 1 μM” value is 63%.
As for `O=C(OCCN1CCC(=C(c2ccc(F)cc2)c2ccc(F)cc2)CC1)C12CC3CC(CC(C3)C1)C2` [Example 11, Tricyclo[3.3.1.1^3,7]decane-1-carboxylic acid 2-[4-[bis(4-fluorophenyl)methylene]-1-piperidinyl]ethyl ester], the inhibition at 1 µM in experiment [1] (^3 H-8-OH DPAT) was 95%; in experiment [2], 100%. For the same compound, in experiment [4], the “5HT2 Receptor Binding % Inhibition at 1 μM” value is reported as 98%.
